The text below walks through data of patent publication US20250250606A1, “BIOELECTROCHEMICAL DETERMINATION OF LACTATE” (DIRECTSENS GMBH, priority 2022, published 2025).

The term Km denotes the substrate concentration at which the rate is half of its maximum. The kcat is the number of substrate molecules converted per active site and unit of time at saturation. One may read the kcat/Km as the turnover number divided by the Michaelis constant.

Series [1] relates to Shigella sp. FC1655 lactate dehydrogenase SsLDH, SEQ ID NO: 74, predicted signal peptide removed, N-terminal 6xHis/HRV 3C tag (SEQ ID NO: 250). Particulars: apparent, L-lactate 0.125 to 64 mM, DCIP 120 μM, 11 mM PBS pH 7.4, 30° C.
Series [2] deals with T1, Lactobacillus helsingborgensis lactate dehydrogenase LhLDH, SEQ ID NO: 13, N-terminal 6xHis/HRV 3C tag (SEQ ID NO: 250) (Lactobacillus helsingborgensis, UniProt A0A0F4LW09).
T1 sequence (A0A0F4LW09 1-409): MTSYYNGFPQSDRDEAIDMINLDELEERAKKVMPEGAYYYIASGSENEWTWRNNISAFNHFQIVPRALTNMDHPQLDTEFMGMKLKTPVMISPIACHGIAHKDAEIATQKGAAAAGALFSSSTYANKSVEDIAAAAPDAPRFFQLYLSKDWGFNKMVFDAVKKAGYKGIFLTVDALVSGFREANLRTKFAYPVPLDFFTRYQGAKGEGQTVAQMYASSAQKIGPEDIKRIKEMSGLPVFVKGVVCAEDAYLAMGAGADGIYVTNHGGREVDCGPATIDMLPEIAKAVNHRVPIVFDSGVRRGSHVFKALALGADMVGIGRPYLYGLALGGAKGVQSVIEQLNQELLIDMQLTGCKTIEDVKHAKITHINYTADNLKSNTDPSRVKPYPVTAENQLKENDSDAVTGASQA
The series can be described thus: Apparent steady-state kinetics of L-lactate oxidation with DCIP as electron acceptor. Particulars: L-lactate 0.125 to 64 mM, DCIP 120 μM, 11 mM PBS pH 7.4, 30° C. It is filed as biochemical.

Series [3] addresses T2, Gilliamella bombicola lactate dehydrogenase GbLDH, SEQ ID NO: 73, N-terminal 6xHis/HRV 3C tag (SEQ ID NO: 250) (Gilliamella bombicola, UniProt A0A1C4CJ33).
T2 sequence (A0A1C4CJ33 1-365): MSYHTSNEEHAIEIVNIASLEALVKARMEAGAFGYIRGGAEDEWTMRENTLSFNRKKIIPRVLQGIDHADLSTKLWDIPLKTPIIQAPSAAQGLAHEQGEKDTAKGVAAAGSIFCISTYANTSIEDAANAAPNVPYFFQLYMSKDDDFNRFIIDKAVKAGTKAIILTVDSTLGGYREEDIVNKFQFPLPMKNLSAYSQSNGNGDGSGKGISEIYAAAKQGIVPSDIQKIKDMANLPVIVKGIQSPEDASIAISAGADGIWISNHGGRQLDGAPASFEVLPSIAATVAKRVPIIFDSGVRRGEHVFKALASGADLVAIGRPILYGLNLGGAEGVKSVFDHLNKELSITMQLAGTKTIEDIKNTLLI
The description is as above. Format: biochemical. Particulars: L-lactate 0.125 to 64 mM, DCIP 120 μM, 11 mM PBS pH 7.4, 30° C.

The target in series [4] is T3, Pediococcus acidilactici lactate dehydrogenase PaLDH (PaLCTO), native form, SEQ ID NO: 2 (Pediococcus acidilactici, UniProt E0NE46).
T3 sequence (E0NE46 1-369): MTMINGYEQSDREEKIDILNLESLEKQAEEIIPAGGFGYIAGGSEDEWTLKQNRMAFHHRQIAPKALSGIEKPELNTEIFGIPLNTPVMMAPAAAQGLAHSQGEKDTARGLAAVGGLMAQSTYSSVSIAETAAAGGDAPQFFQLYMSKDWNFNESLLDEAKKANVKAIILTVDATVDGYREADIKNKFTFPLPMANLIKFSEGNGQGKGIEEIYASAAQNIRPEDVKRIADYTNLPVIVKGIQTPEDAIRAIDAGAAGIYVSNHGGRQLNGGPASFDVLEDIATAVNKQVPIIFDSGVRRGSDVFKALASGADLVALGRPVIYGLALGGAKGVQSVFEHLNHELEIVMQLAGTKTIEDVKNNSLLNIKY
Particulars: apparent; L-lactate 4 to 500 mM; DCIP 120 μM; 11 mM PBS pH 7.4, 30° C.; per monomeric mass.

Series [5] addresses T4, Lactobacillus johnsonii lactate dehydrogenase LjLDH, SEQ ID NO: 59, N-terminal 6xHis/HRV 3C tag (SEQ ID NO: 250) (Lactobacillus johnsonii, UniProt A0A7D9N8I3).
T4 sequence (A0A7D9N8I3 1-412): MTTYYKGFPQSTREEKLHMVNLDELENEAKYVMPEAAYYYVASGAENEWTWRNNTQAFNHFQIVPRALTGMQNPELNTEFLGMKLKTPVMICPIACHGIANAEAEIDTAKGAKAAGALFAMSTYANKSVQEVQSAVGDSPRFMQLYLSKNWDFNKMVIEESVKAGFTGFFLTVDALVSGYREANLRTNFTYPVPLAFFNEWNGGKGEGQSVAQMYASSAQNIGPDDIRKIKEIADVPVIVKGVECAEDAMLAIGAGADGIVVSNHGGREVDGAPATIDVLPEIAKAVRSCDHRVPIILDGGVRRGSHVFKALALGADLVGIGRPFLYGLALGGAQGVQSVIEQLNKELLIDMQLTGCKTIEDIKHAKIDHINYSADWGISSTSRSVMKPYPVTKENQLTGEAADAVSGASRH
The series can be described thus: Apparent steady-state kinetics of L-lactate oxidation with DCIP as electron acceptor. Format: biochemical. The settings on record: L-lactate 0.125 to 64 mM, DCIP 120 μM, 11 mM PBS pH 7.4, 30° C.

A further series has as its system C[C@H](O)C(=O)O. In words: purified protein, by the assay type. Particulars: other: apparent, L-lactate 0.125 to 64 mM, DCIP 120 μM, 11 mM PBS pH 7.4, 30° C.

Consider `C[C@H](O)C(=O)O` [L-lactate], for which the Michaelis constant (Km) in series [1] is 5.67 ± 1.24 mM; in series [2] it was 0.52 ± 0.09 mM; in series [3], 16.9 ± 2.5 mM; in series [5], 1.35 ± 0.18 mM. For the same compound, the kcat was 107 ± 10 s⁻¹ in series [1] (per monomeric mass); 102 ± 8 s⁻¹ in series [2] (per monomeric mass); 207 ± 29 s⁻¹ in series [3] (per monomeric mass); 61.8 ± 8.5 s⁻¹ in series [4]; 47.2 ± 2.0 s⁻¹ in series [5] (per monomeric mass).
Take “Enterococcus avium lactate dehydrogenase EaLDH, SEQ ID NO: 155, N-terminal 6xHis/HRV 3C tag (SEQ ID NO: 250) (Enterococcus avium ATCC 14025)”: in the series on C[C@H](O)C(=O)O, the Michaelis constant (Km) is recorded as 21.6 ± 2.2 mM, the kcat turned out to be 94 ± 7.8 s⁻¹ and the kcat/Km was determined as 4350 M⁻¹ s⁻¹.
